ChEMBL document CHEMBL4422675, “Pyrrolinone derivatives as a new class of P2X3 receptor antagonists Part 2: Discovery of orally bioavailable compounds” (Bioorg Med Chem Lett, 2019)

Columns and labels:
[1] = Half life in rat at 0.5 mg/kg, iv or 1 mg/kg, po; format: ADME, organism-based; conditions: in vivo
[2] = Oral bioavailability in rat at 1 mg/kg; format: ADME, organism-based; conditions: in vivo
in vivo = conditions: rat, iv, 0.5 mg/kg
[3] = Half life in rat at 1 mg/kg, iv; format: ADME, organism-based; conditions: in vivo
[4] = AUC in rat at 3 mg/kg, po; format: ADME, organism-based; conditions: in vivo
[5] = Total clearance in rat at 1 mg/kg, iv; format: ADME, organism-based; conditions: in vivo
[6] = Cmax in rat at 3 mg/kg, po; format: ADME, organism-based; set-up: dose 3 mg/kg, route oral; conditions: in vivo
[7] = Oral bioavailability in rat at 3 mg/kg; format: ADME, organism-based; conditions: in vivo

SMILES | half-life [1] [h] | bioavailability [2] [%] | clearance (in vivo) [mL/min/kg] | other results
CC(C)(C)C(=O)C1=C(O)C(=O)N(c2ccc(-c3ccsc3)cc2)C1c1ccccc1OCC(=O)O (stereo not given) | 4.2 | 5.2 | – | –
COc1ccccc1C1C(C(=O)C(C)C)=C(O)C(=O)N1c1ccc(-c2ccsc2)cc1 (stereo not given) | 6.1 | 20 | 0.3 | –
COc1ccc(C(=O)C2=C(O)C(=O)N(c3ccc(-c4ccon4)cc3)C2c2ccccc2OCCO)cc1 (stereo not given) | 0.5 | 9 | – | –
CNC(=O)c1ccc(C(=O)C2=C(O)C(=O)N(c3ccc(-c4ccon4)cc3)C2C2CCCCC2)cc1 (stereo not given) | 0.7 | 1.6 | – | –
CN(C)CCOc1ccccc1C1C(C(=O)C(C)(C)C)=C(O)C(=O)N1c1ccc(-c2ccsc2)cc1 (stereo not given) | 1.5 | 15.5 | 7.3 | –
O=C(O)c1ccc(C(=O)C2=C(O)C(=O)N(c3ccc(-c4ccon4)cc3)C2C2CCCCC2)cc1 (stereo not given) | 1.9 | 3.7 | – | –
CC(C)C(=O)C1=C(O)C(=O)N(c2ccc(-c3ccsc3)cc2)C1c1ccccc1OCC[S+](C)[O-] (stereo not given) | 1.1 | 0.7 | 23.2 | –
CCC(CC)C1C(C(=O)c2ccc(OC)cc2)=C(O)C(=O)N1c1ccc(-c2ccon2)cc1 (stereo not given) | 4.2 | 18.9 | 5.1 | –
CC(C)(C)C(=O)C1=C(O)C(=O)N(c2ccc(-c3ccon3)cc2)C1c1ccccc1OCCO (stereo not given) | 2.1 | 49.9 | 2.9 | –
COc1ccccc1[C@@H]1C(C(=O)C(C)C)=C([O-])C(=O)N1c1ccc(-c2ccsc2)cc1.[Na+] | – | – | – | half-life [3]: 3.2 h; AUC [4]: 48400 ng·h/mL; clearance [5]: 0.39 mL/min/kg; Cmax [6]: 4230 ng/mL; bioavailability [7]: 37.4%
COc1ccc(C(=O)C2=C(O)C(=O)N(c3ccc(-c4ccon4)cc3)C2c2ccccc2OC)cc1 (stereo not given) | 0.5 | 19.9 | 8.8 | –
C[S+]([O-])CCOc1ccccc1C1C(C(=O)C(C)(C)C)=C(O)C(=O)N1c1ccc(-c2ccsc2)cc1 (stereo not given) | 1.4 | 23.2 | 13.7 | –
O=C(C1=C(O)C(=O)N(c2ccc(-c3ccon3)cc2)C1C1CCCCC1)c1ccc(CO)cc1 (stereo not given) | 1.4 | 6.7 | 3.8 | –
CC(C)(C)C(=O)C1=C(O)C(=O)N(c2ccc(-c3cccs3)cc2)C1c1ccccc1OCCO (stereo not given) | 2 | 65.2 | 1.3 | –
CC(C)C(=O)C1=C(O)C(=O)N(c2ccc(-c3ccsc3)cc2)C1c1ccccc1OCCO (stereo not given) | 1 | 40.8 | – | –
CC(C)(C)C(=O)C1=C(O)C(=O)N(c2ccc(-c3ccsc3)cc2)C1c1ccccc1OCCO (stereo not given) | 3.3 | 39.5 | – | –
COc1ccccc1C1C(C(=O)C(C)(C)C)=C(O)C(=O)N1c1ccc(-c2ccon2)cc1 (stereo not given) | 2.6 | 77.9 | 1.3 | –
COc1ccc(C(=O)C2=C(O)C(=O)N(c3ccc(-c4ccon4)cc3)C2C2CCCCC2)cn1 (stereo not given) | 1.4 | 28.1 | 4.6 | –
